Earlier results in patent US5028692A, “Gastrin releasing peptide antagonist” (Merck & Co., Inc., priority 1989, dated 1991).
Peptide text beside a SMILES is read from it.

Tests used:
[1] = tested on: bombesin-stimulated growth

CSCC[C@H](NC(=O)[C@H](CC(C)C)NC(=O)CNC(=O)[C@H](Cc1ccc(O)cc1)NC(=O)[C@H](Cc1ccccc1)NC(=O)[C@H](CCCCN)NC(=O)[C@H](CC(N)=O)NC(=O)[C@@H]1CCCN1C(=O)[C@H](CC(=O)O)NC(=O)[C@H](C)NC(=O)[C@@H]1CCC(=O)N1)C(N)=O [physalaemin] (HELM PEPTIDE1{[Glp].A.D.P.N.K.F.Y.G.L.M.[am]}$$$$V2.0)
inhibition of clonal and mass culture growth (SCLC cell lines): inhibits the clonal and mass culture growth of SCLC cell lines at picomolar concentrations

[Leu^14 -.PSI.-CH2 NH-Leu^13 ] bombesin
inhibition of bombesin-stimulated growth [1]: potent inhibitor
